From patent US20210353767A1, “COMPOSITIONS AND METHODS FOR DRUG DELIVERY” (NORTH CAROLINA STATE UNIVERSITY, priority 2018, published 2021)
Where “and” joins values, the source holds several entries; their conditions need not be identical. Equal entries are not always repeated. Where two headings read alike, the source gives them in different places.

How the values were obtained:
[1] = test system: KPC 4662 pancreatic tumor; details: average of 4 mice
Protocol: Allograft Pancreatic Tumor. KPC 4662 pancreatic tumor cells (5e5) were injected in a 1:1 ratio with PBS:Matrigel(Matrigel Matrix 354234, lot 7205011) into the subcutaneous dorsal flanks of CD57B16 mice.
IVIS imaging (Camera #11219, DW434) was performed right before 100 ul of 50 mg/ml DBCO-cy7 retro orbital injections and imaged 24 hours afterwards when most of the unbound DBCO-cy was cleared from systemic circulation. For the refill dose experiments 9-week-old albino c57b16's from Envigo were used. For all other tumor refills, 9-week-old regular c57s from Envigo were used.

[2] = CD1 mice, one month after intradermal injection of 50 μL
Protocol: H&E slides of mouse skin and tissues from 8 mice were analyzed to determine local or distal effects of an injected depot material. All tissues were evaluated by light microscopy and were graded as: “-”=no changes observed in this tissue for any mouse; “0”=a particular change not present; “1”=change is present at slight/minimal severity; “2”=mild severity, “3”=moderate severity; “4” marked severity; “5”=severe. A grade of 1 represents the minimal detectable change and a 5 represents a change judged to be essentially as severe as possible.

KPC 4662 tumors = details: pancreatic tumor after a dose of DBCO-cy7
Protocol: 8 mice were similarly injected with KPC 4662 tumors and allowed to grow over a week until injection of sNHS(N=4) or PBS(N=4). Injection and imaging was performed as described above on the IVIS before and 24 hours after DBCO-cy7 IV injection. Tumors were then explanted imaged to compare to a linear regression alginate gels ROI's that contained the same dose injected IV to obtain a percentage of cy7 captured at the tumor site.
The study employed three tumors injected with a “Click Target” and one control.

[3] = Brain refills: capture of i.v. DBCO-Cy7 at intracranial azide-sNHS depot; assay type: in vivo; details: azide-sNHS vs control mice, 24 hours after i.v. administration
Protocol: Representative images of azide-sNHS and control mice after 24 hours after i.v. administration of DBCO-Cy7. The brain was removed and imaged alone.
Quantitation of intracranial ROI radiant efficiency was measured 24 hours after i.v. DBCO-Cy7 administration. Samples show mean+/−SEM. *=p<0.05, **=p<0.01 by Student's T-test.
Brain Refills. For anesthesia, 1-5% isoflurane was administered before procedures as well as continuously through the stereotaxic setup, and 0.5% lidocaine HCL administered subcutaneous under the incision site prior to surgery. 10-week-old CD1 mice were mounted on a kopf stereotaxic head stage using ear bars and a 5 μl Hamilton syringe placed in needle fixture. For surgery, the area to be incised on the head was shaved and washed with 70% alcohol. An incision with a #10 blade was made from posterior to anterior (start of skull to between eyes) and skin pulled away from incision using sterile Q-tips to expose the skull. The syringe needle was adjusted so the tip was at Bregma, position of the stereotaxic device recorded, and then moved to the desired calculated position where a marking will be made with a surgical marker. The experimental coordinates were −2.5M/L, −1A/P, −3D/V. A small hand drill was then used to make a 1-2 mm size hole in the skull for the injection needle. […] Once complete, the mouse skin was joined by VetBond skin glue and monitored post-surgery. […]

[4] = Intradermal tetrazine-sNHS depot, IVIS imaging of TCO-cy5 capture; assay type: in vivo, mice; details: for Average Radiant Efficiency: average of 4 mice; for Total Radiant Efficiency Measured within Regions of Interest (ROI): before-injection value subtracted, individual mouse
Protocol: 50 μL of 0.05M methyl tetrazine-sNHS ester was dissolved in sterile PBS, and injected intradermally into the dorsal flanks of mice CD1 Charles river mice. The first four images in FIG. 8 are pictures of the four mice treated with the “Click-Target” (tetrazine-sNHS) and the four control mice injected with PBS. The last 4 images in FIG. 8 show the fluorescence observed 24 hours after injection of the “Click Prodrug” (TCO-cy5). The IVIS was adjusted for this cy5 fluorophore. […] This experiment was also performed at 1 week with similar results
The total increase in fluorescence after the TCO-cy5 injection (at 1 day) over the intradermal injection ROI's (total radiant efficiency measurement) subtracting the before tco-cy5 image injection value are included below.
The total increase in fluorescence after the TCO-cy5 injection (at 1 week) over the intradermal injection ROI's (total radiant efficiency measurement) subtracting the before tco-cy5 image injection value are included below.

With `[N-]=[N+]=NCCC(=O)ON1C(=O)CC(S(=O)(=O)O)C1=O` (stereo not shown) [Azide sNHS, 3-Azidopropionic Acid Sulfo-NHS ester] the “Average Radiant Efficiency” value ([1]; 24 hours after first administration of DBCO-cy7) was 9.21 × 10^9, the “Average Radiant Efficiency” value ([1]; 24 hours after second administration of DBCO-cy7) was 7.26 × 10^9 and the “Average Radiant Efficiency” value ([1]; 24 hours after third administration of DBCO-cy7) was 4.12 × 10^9. The “histologic changes (H&E) versus PBS group” value [2] was “no difference between the two groups” and the “radiance relative to control (ROI measurements)” value (KPC 4662 tumors) was “four times greater”.

In the case of `C[N+]1=C(C=CC2=CC(=CC=C3N(CCCCCC(=O)NCCCCCC(=O)N4Cc5ccccc5C#Cc5ccccc54)c4ccccc4C3(C)C)CCC2)C(C)(C)c2ccccc21.F[P-](F)(F)(F)(F)F` [DBCO-Cy7, Cyanine7 DBCO], the “capture in the brain” value [3] is reported as “click-specific capture”.

For methyl tetrazine-sNHS ester, the “Average Radiant Efficiency” value ([4]; TCO-cy5 injection at 1 week) was 1.25 × 10^9, the “Average Radiant Efficiency” value ([4]; TCO-cy5 injection at 1 day) was 2.72 × 10^9 and the “Total Radiant Efficiency Measured within Regions of Interest (ROI)” value ([4]; increase in fluorescence after TCO-cy5 injection at 1 week) was 1.12 × 10^9 and 1.57 × 10^9 and 1.31 × 10^9 and 1.01 × 10^9. For the same compound, the “Total Radiant Efficiency Measured within Regions of Interest (ROI)” value ([4]; increase in fluorescence after TCO-cy5 injection at 1 day) was 3.64 × 10^9 and 2.40 × 10^9 and 1.92 × 10^9 and 2.90 × 10^9.
